Results taken from paper PMC1208959 (Virology Journal, 2005).

Legend:
[1] = target: NiV F and NiV G glycoproteins (Nipah virus, UniProt Q9IH63); assay type: cell-based
[2] = target: HeV F and HeV G glycoproteins (Hendra virus, UniProt O89342); assay type: cell-based
HeV F and HeV G glycoproteins, sequence (O89342 110-546 limits assumed): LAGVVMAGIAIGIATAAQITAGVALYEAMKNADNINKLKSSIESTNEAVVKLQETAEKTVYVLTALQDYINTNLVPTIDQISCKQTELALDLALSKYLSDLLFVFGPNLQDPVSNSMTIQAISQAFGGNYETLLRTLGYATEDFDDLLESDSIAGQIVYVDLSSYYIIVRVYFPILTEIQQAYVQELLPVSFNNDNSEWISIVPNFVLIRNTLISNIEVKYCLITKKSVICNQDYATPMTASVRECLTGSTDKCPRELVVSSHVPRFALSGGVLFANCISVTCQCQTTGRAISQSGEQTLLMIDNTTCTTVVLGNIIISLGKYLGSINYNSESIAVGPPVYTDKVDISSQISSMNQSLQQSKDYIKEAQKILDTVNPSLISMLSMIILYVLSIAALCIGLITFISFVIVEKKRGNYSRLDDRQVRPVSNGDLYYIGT
HeV F and HeV G glycoproteins, sequence (O89342 27-109 partner limits assumed): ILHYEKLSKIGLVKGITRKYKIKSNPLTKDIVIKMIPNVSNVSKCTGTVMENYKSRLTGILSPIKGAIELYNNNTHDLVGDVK

NiV F and NiV G glycoproteins, sequence (Q9IH63 110-546 limits assumed): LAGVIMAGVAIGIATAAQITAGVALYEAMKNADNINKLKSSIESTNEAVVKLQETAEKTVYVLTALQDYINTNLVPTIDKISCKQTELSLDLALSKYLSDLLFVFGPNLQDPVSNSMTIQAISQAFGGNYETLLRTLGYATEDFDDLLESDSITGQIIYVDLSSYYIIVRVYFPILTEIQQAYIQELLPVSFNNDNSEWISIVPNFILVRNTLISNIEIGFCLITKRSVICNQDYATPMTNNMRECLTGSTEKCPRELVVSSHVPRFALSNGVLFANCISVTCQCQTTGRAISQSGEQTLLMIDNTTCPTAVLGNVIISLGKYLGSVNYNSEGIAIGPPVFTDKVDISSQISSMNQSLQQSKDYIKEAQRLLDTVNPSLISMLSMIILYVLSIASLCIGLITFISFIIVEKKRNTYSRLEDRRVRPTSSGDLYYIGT
NiV F and NiV G glycoproteins, sequence (Q9IH63 27-109 partner limits assumed): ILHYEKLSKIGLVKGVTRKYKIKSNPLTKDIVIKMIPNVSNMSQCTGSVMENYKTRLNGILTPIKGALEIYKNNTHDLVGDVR

Compound | reduction of activity versus N-PEG-NiV FC2 [1] | reduction of activity versus N-PEG-NiV FC2 [2] | inhibitory effect on cell-fusion (in words) [1] | inhibitory effect on cell-fusion (in words) [2] | effect on virus infection (in words) (live NiV) | syncytial morphology and size (in words) (live NiV) | effect on virus infection (in words) (live HeV) | syncytial morphology and size (in words) (live HeV)
CC[C@H](C)[C@H](NC(=O)[C@H](Cc1ccc(O)cc1)NC(=O)[C@H](CC(=O)O)NC(=O)[C@H](CCCCN)NC(=O)[C@H](CO)NC(=O)[C@H](CCC(N)=O)NC(=O)[C@H](CCC(N)=O)NC(=O)[C@H](CC(C)C)NC(=O)[C@H](CO)NC(=O)[C@H](CCC(N)=O)NC(=O)[C@H](CC(N)=O)NC(=O)[C@H](CCSC)NC(=O)[C@H](CO)NC(=O)[C@H](CO)NC(=O)[C@@H](NC(=O)[C@H](CCC(N)=O)NC(=O)[C@H](CO)NC(=O)[C@H](CO)NC(=O)[C@@H](NC(=O)[C@H](CC(=O)O)NC(=O)[C@@H](NC(=O)[C@H](CCCCN)NC(C)=O)C(C)C)[C@@H](C)CC)[C@@H](C)CC)C(=O)N[C@@H](CCCCN)C(=O)N[C@@H](CCC(=O)O)C(=O)N[C@@H](C)C(=O)N[C@@H](CCC(N)=O)C(=O)N[C@@H](CCCNC(=N)N)C(=O)N[C@@H](CC(C)C)C(=O)N[C@@H](CC(C)C)C(=O)N[C@@H](CC(=O)O)C(=O)N[C@H](C(=O)N[C@H](C(=O)N[C@@H](CC(N)=O)C(=O)N1CCC[C@H]1C(=O)N[C@@H](CO)C(=O)N[C@@H](CC(C)C)C(=O)NCCOCCOCCOCCOCCOCCOCCOCCOCCOCCOCCOCCOCCC(=O)O)C(C)C)[C@@H](C)O [C-PEG NiV FC2] | approximately 20 fold | approximately 20 fold | – | – | – | – | – | –
Ac-KQSSMISLQSQKSINSLPSQIRDYVQKTVLLAEDND-NH2 [capped-ScNiV FC2] | – | – | no inhibitory effect | no inhibitory effect | – | – | – | –
KQSSMISLQSQKSINSLPSQIRDYVQKTVLLAEDND [C-PEG-ScNiV FC2, reference compound] | – | – | no inhibitory activity | no inhibitory activity | no effect at any concentration tested | identical to those observed in the absence of any peptide | no effect at any concentration tested | identical to those observed in the absence of any peptide
